# Results published in PubChem BioAssay (NCI).
#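 48-hour exposure; five concentrations; linearly interpolated endpoints. TGI marks complete inhibition of growth.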
# Legend:
# Assay in all cases: NCI anticancer screen, dose series, 48 h
# MDA-MB-435 = system: MDA-MB-435
# HCC-2998 colon = system: HCC-2998 colon
# NCI-H226 lung = system: NCI-H226 lung
# SK-OV-3 ovarian = system: SK-OV-3 ovarian
# DU-145 prostate = system: DU-145 prostate
# HCT-116 colon = system: HCT-116 colon
# MDA-N = system: MDA-N
# NCI-H23 lung = system: NCI-H23 lung
# OVCAR-4 ovarian = system: OVCAR-4 ovarian
# TK-10 renal = system: TK-10 renal
# EKVX NSCLC = system: EKVX NSCLC
# M14 melanoma = system: M14 melanoma
# KM12 colon = system: KM12 colon
# OVCAR-8 ovarian = system: OVCAR-8 ovarian
# HCT-15 colon = system: HCT-15 colon
# SK-MEL-5 melanoma = system: SK-MEL-5 melanoma
# MALME-3M melanoma = system: MALME-3M melanoma
# HS 578T breast = system: HS 578T breast
# SF-268 CNS = system: SF-268 CNS
# SN12C renal = system: SN12C renal
# T-47D breast = system: T-47D breast
# RPMI-8226 leukemia = system: RPMI-8226 leukemia
# SK-MEL-2 melanoma = system: SK-MEL-2 melanoma
# RXF 393 renal = system: RXF 393 renal
# PC-3 prostate = system: PC-3 prostate
# HT29 colon = system: HT29 colon
# CAKI-1 renal = system: CAKI-1 renal
# COLO 205 colon = system: COLO 205 colon
# SF-295 CNS = system: SF-295 CNS
# OVCAR-3 ovarian = system: OVCAR-3 ovarian
# OVCAR-5 ovarian = system: OVCAR-5 ovarian
# SK-MEL-28 melanoma = system: SK-MEL-28 melanoma
# NCI/ADR-RES ovarian = system: NCI/ADR-RES ovarian
# MDA-MB-231 breast = system: MDA-MB-231 breast
# SNB-19 CNS = system: SNB-19 CNS
# CCRF-CEM leukemia = system: CCRF-CEM leukemia
# UACC-62 melanoma = system: UACC-62 melanoma
# U251 CNS = system: U251 CNS
# HL-60(TB) leukemia = system: HL-60(TB) leukemia
# A498 renal = system: A498 renal
# LOX IMVI melanoma = system: LOX IMVI melanoma
# HOP-92 NSCLC = system: HOP-92 NSCLC
# ACHN renal = system: ACHN renal
# MOLT-4 leukemia = system: MOLT-4 leukemia
# K-562 leukemia = system: K-562 leukemia
# A549 NSCLC = system: A549 NSCLC
# SR leukemia = system: SR leukemia
# MCF7 breast = system: MCF7 breast
# IGROV1 ovarian = system: IGROV1 ovarian
# SW-620 colon = system: SW-620 colon
# 786-0 renal = system: 786-0 renal
# BT-549 breast = system: BT-549 breast
# SF-539 CNS = system: SF-539 CNS
# NCI-H460 lung = system: NCI-H460 lung
# UACC-257 melanoma = system: UACC-257 melanoma
# HOP-62 NSCLC = system: HOP-62 NSCLC
# SNB-75 CNS = system: SNB-75 CNS
# UO-31 renal = system: UO-31 renal
# NCI-H522 lung = system: NCI-H522 lung
smiles,measurement,setting,value
O=C(NNc1cn[nH]c(=O)n1)c1cccc2nc3ccccc3nc12,TGI,MDA-MB-435,> 100 µM
same,TGI,HCC-2998 colon,> 100 µM
same,TGI,NCI-H226 lung,> 100 µM
same,TGI,SK-OV-3 ovarian,> 100 µM
same,TGI,DU-145 prostate,> 100 µM
same,TGI,HCT-116 colon,> 100 µM
same,TGI,MDA-N,> 100 µM
same,TGI,NCI-H23 lung,> 100 µM
same,TGI,OVCAR-4 ovarian,> 100 µM
same,TGI,TK-10 renal,67 µM
same,TGI,EKVX NSCLC,> 100 µM
same,TGI,M14 melanoma,> 100 µM
same,TGI,KM12 colon,> 100 µM
same,TGI,OVCAR-8 ovarian,> 100 µM
same,TGI,HCT-15 colon,> 100 µM
same,TGI,SK-MEL-5 melanoma,> 100 µM
same,TGI,MALME-3M melanoma,> 100 µM
same,TGI,HS 578T breast,> 100 µM
same,TGI,SF-268 CNS,> 100 µM
same,TGI,SN12C renal,> 100 µM
same,TGI,T-47D breast,> 100 µM
same,TGI,RPMI-8226 leukemia,> 100 µM
same,TGI,SK-MEL-2 melanoma,> 100 µM
same,TGI,RXF 393 renal,56.8 µM
same,TGI,PC-3 prostate,> 100 µM
same,TGI,HT29 colon,> 100 µM
same,TGI,CAKI-1 renal,> 100 µM
same,TGI,COLO 205 colon,> 100 µM
same,TGI,SF-295 CNS,> 100 µM
same,TGI,OVCAR-3 ovarian,> 100 µM
same,TGI,OVCAR-5 ovarian,> 100 µM
same,TGI,SK-MEL-28 melanoma,> 100 µM
same,TGI,NCI/ADR-RES ovarian,> 100 µM
same,TGI,MDA-MB-231 breast,84.3 µM
same,TGI,SNB-19 CNS,> 100 µM
same,TGI,CCRF-CEM leukemia,> 100 µM
same,TGI,UACC-62 melanoma,> 100 µM
same,TGI,U251 CNS,> 100 µM
same,TGI,HL-60(TB) leukemia,> 100 µM
same,TGI,A498 renal,> 100 µM
same,TGI,LOX IMVI melanoma,> 100 µM
same,TGI,HOP-92 NSCLC,> 100 µM
same,TGI,ACHN renal,60.1 µM
same,TGI,MOLT-4 leukemia,27.9 µM
same,TGI,K-562 leukemia,> 100 µM
same,TGI,A549 NSCLC,> 100 µM
same,TGI,SR leukemia,26.5 µM
same,TGI,MCF7 breast,> 100 µM
same,TGI,IGROV1 ovarian,> 100 µM
same,TGI,SW-620 colon,> 100 µM
same,TGI,786-0 renal,> 100 µM
same,TGI,BT-549 breast,> 100 µM
same,TGI,SF-539 CNS,> 100 µM
same,TGI,NCI-H460 lung,> 100 µM
same,TGI,UACC-257 melanoma,> 100 µM
O=C(c1ccccc1)c1ccc2nc(-c3c(Cl)c(Cl)c(Cl)c(Cl)c3C(=O)N/N=C\C=C\c3ccccc3)[nH]c2c1,TGI,MDA-MB-435,> 100 µM
same,TGI,NCI-H226 lung,> 100 µM
same,TGI,SK-OV-3 ovarian,> 100 µM
same,TGI,DU-145 prostate,> 100 µM
same,TGI,HCT-116 colon,> 100 µM
same,TGI,MDA-N,> 100 µM
same,TGI,NCI-H23 lung,> 100 µM
same,TGI,OVCAR-4 ovarian,> 100 µM
same,TGI,TK-10 renal,> 100 µM
same,TGI,EKVX NSCLC,> 100 µM
same,TGI,M14 melanoma,> 100 µM
same,TGI,HOP-62 NSCLC,> 100 µM
same,TGI,KM12 colon,> 100 µM
same,TGI,OVCAR-8 ovarian,> 100 µM
same,TGI,HCT-15 colon,> 100 µM
same,TGI,SK-MEL-5 melanoma,> 100 µM
same,TGI,MALME-3M melanoma,> 100 µM
same,TGI,HS 578T breast,> 100 µM
same,TGI,SF-268 CNS,> 100 µM
same,TGI,SN12C renal,> 100 µM
same,TGI,T-47D breast,> 100 µM
same,TGI,RPMI-8226 leukemia,64 µM
same,TGI,SK-MEL-2 melanoma,> 100 µM
same,TGI,RXF 393 renal,95.3 µM
same,TGI,PC-3 prostate,> 100 µM
same,TGI,HT29 colon,> 100 µM
same,TGI,CAKI-1 renal,> 100 µM
same,TGI,COLO 205 colon,> 100 µM
same,TGI,SF-295 CNS,> 100 µM
same,TGI,OVCAR-3 ovarian,84.8 µM
same,TGI,OVCAR-5 ovarian,> 100 µM
same,TGI,SK-MEL-28 melanoma,> 100 µM
same,TGI,NCI/ADR-RES ovarian,> 100 µM
same,TGI,MDA-MB-231 breast,> 100 µM
same,TGI,SNB-75 CNS,> 100 µM
same,TGI,SNB-19 CNS,> 100 µM
same,TGI,CCRF-CEM leukemia,86.8 µM
same,TGI,U251 CNS,> 100 µM
same,TGI,HL-60(TB) leukemia,> 100 µM
same,TGI,LOX IMVI melanoma,> 100 µM
same,TGI,HOP-92 NSCLC,> 100 µM
same,TGI,ACHN renal,> 100 µM
same,TGI,MOLT-4 leukemia,> 100 µM
same,TGI,K-562 leukemia,> 100 µM
same,TGI,A549 NSCLC,> 100 µM
same,TGI,SR leukemia,97.4 µM
same,TGI,UO-31 renal,> 100 µM
same,TGI,MCF7 breast,> 100 µM
same,TGI,NCI-H522 lung,> 100 µM
same,TGI,IGROV1 ovarian,> 100 µM
same,TGI,SW-620 colon,> 100 µM
same,TGI,786-0 renal,> 100 µM
same,TGI,BT-549 breast,> 100 µM
same,TGI,SF-539 CNS,> 100 µM
same,TGI,UACC-257 melanoma,> 100 µM
